Results as given in ChEMBL document CHEMBL1201862, “PubChem BioAssay data set” (2004).
Activity calls are given as the source filed them.

Legend:
[1] = target: T1, Apoptotic protease-activating factor 1 (Homo sapiens, UniProt O14727); experiment: SAR analysis of small molecule inhibitors of Apaf-1 in a Fluorescent assay.; assay type: functional; conditions: read-out: IC50_Mean
T1 sequence (O14727 whole entry): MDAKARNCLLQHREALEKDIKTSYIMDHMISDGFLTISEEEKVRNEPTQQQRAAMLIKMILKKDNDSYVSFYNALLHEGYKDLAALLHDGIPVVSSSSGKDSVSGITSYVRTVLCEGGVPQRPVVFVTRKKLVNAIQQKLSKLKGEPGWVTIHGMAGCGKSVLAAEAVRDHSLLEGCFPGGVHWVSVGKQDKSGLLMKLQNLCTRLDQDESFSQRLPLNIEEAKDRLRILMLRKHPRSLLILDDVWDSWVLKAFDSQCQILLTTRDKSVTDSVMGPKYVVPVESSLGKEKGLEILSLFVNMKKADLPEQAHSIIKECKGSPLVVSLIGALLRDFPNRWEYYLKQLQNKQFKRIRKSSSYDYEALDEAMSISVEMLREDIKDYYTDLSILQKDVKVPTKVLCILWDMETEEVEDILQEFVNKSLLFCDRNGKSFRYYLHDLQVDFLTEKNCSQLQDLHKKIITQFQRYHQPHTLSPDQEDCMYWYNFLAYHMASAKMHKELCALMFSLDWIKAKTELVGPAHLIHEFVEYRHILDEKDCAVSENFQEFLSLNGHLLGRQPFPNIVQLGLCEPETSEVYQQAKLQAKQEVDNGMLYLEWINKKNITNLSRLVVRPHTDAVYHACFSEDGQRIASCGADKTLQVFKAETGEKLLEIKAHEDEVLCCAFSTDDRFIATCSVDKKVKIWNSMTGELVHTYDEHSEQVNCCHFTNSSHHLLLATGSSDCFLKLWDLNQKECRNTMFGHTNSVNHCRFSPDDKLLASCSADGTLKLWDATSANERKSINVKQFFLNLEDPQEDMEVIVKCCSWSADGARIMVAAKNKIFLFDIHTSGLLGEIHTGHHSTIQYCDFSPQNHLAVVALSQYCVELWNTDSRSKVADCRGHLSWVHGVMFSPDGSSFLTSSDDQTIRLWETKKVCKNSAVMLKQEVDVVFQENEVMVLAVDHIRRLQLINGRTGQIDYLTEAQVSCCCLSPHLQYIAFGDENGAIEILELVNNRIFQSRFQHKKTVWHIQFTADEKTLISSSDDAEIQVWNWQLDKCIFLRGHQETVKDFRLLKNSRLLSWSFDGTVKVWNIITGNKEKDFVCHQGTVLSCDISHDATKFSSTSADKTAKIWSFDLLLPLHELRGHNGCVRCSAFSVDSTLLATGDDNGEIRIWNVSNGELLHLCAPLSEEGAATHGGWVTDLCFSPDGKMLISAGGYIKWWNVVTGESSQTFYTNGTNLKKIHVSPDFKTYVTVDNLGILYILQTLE

[2] = target: ALK tyrosine kinase receptor (Homo sapiens, UniProt Q9UM73); assay type: functional;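 further: ALK tested as one member of a kinase panel screen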
Sequence of ALK tyrosine kinase receptor (Q9UM73 whole entry): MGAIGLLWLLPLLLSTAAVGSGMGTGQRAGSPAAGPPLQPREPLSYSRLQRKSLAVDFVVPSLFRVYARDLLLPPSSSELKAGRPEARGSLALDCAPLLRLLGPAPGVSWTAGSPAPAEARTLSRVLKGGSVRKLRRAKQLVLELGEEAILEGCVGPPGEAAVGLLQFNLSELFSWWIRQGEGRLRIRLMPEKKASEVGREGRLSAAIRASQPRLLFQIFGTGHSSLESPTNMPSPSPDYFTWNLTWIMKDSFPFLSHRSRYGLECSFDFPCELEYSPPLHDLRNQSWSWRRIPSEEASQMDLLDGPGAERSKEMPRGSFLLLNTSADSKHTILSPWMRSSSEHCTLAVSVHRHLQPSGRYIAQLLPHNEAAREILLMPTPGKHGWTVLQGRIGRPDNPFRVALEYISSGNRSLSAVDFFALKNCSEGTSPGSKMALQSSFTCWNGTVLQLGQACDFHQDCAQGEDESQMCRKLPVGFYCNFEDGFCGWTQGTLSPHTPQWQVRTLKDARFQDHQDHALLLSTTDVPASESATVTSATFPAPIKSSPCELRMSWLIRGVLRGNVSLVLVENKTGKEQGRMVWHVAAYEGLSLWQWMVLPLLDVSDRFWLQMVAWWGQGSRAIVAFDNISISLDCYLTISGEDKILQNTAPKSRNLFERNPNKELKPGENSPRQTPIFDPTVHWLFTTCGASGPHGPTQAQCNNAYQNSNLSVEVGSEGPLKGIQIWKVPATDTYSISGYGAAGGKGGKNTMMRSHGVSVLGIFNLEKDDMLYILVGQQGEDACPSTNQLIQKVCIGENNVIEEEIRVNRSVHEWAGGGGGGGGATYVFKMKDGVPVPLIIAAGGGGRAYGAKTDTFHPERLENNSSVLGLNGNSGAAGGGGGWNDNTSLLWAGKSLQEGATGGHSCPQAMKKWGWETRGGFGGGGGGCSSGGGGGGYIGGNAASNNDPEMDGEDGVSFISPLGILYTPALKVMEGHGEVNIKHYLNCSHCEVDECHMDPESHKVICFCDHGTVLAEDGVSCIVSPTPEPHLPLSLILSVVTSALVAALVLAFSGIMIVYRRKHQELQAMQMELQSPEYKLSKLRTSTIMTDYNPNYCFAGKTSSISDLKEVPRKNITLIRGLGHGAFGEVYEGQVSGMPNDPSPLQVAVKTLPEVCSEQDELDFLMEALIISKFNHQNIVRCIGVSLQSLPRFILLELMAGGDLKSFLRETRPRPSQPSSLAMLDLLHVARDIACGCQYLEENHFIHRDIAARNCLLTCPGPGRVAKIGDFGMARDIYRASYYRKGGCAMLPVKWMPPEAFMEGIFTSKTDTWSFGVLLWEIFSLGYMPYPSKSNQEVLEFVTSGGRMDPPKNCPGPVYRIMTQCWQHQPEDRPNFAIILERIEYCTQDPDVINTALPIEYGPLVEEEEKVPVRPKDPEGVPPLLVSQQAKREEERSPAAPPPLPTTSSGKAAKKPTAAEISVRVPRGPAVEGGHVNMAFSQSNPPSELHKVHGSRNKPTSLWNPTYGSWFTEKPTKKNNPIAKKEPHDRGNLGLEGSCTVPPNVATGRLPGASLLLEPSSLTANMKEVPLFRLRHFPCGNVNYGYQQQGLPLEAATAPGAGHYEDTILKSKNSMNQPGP

[3] = target: Cyclin-dependent kinase 19 (Homo sapiens, UniProt Q9BWU1); experiment: Navigating the Kinome. Panel member name: CDC2L6; assay type: functional
H9c2 = experiment: cells; assay type: functional, cell-based; conditions: Rattus norvegicus, H9c2, Myocardium;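 further: confirmatory concentration-response retest of ultra-high-throughput screening hits for modulation of myocardial damage; cell death induced by hydrogen peroxide oxidative stress; compound pretreatment for 60 min then peroxide exposure for 2 h; potency is for protecting the cells against peroxide damage rather than for killing them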
[4] = target: T2, High affinity choline transporter 1 (Homo sapiens, UniProt Q9GZV3); experiment: human choline transporter blockers, potency – cell-based, 10-point CRC, membrane potential dye, dose response (AID 588401); assay type: functional;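 further: membrane potential dye fluorescence of choline-evoked depolarization via CHT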
T2 sequence (Q9GZV3 whole entry): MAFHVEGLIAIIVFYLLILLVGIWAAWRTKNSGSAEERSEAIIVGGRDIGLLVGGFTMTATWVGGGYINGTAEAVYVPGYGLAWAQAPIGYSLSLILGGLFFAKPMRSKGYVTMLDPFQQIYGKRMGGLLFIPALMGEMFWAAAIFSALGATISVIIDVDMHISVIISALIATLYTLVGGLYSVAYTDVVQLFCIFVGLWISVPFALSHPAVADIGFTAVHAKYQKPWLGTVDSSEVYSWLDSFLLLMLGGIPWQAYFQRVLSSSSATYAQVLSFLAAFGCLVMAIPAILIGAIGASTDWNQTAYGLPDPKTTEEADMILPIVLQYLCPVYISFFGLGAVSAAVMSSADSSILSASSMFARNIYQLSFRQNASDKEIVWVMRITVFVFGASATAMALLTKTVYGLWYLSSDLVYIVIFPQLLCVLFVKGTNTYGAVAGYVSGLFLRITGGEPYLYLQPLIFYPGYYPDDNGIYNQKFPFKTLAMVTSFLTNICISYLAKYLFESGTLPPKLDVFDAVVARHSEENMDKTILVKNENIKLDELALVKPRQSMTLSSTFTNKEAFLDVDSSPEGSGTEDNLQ

[5] = target: Heat shock protein HSP 90-alpha (Homo sapiens, UniProt P07900); assay type: functional, organism-based
[6] = target: T2, High affinity choline transporter 1; experiment: human choline transporter blockers, potency – cell-based, 5-point CRC, membrane potential dye, dose response (AID 504840); assay type: functional
[7] = target: Botulinum neurotoxin type A (Clostridium botulinum (strain Hall / ATCC 3502 / NCTC 13319 / Type A), UniProt P0DPI1); experiment: High-throughput multiplex microsphere dose response for inhibitors of toxin protease, specifically Botulinum neurotoxin light chain A protease, compounds from Cherry Pick 02.; assay type: functional; conditions: read-out: EC50_MICROM
[8] = target: Botulinum neurotoxin type F (Clostridium botulinum, UniProt P30996); experiment: High-throughput multiplex microsphere dose response for inhibitors of toxin protease, specifically Botulinum neurotoxin light chain F protease, compounds from Cherry Pick 02.; assay type: functional; conditions: read-out: EC50_MICROM
[9] = target: Calcium/calmodulin-dependent protein kinase type II subunit alpha (Homo sapiens, UniProt Q9UQM7); experiment: Navigating the Kinome. Panel member name: CAMK2A; assay type: functional
Sequence of Calcium/calmodulin-dependent protein kinase type II subunit alpha (Q9UQM7 whole entry): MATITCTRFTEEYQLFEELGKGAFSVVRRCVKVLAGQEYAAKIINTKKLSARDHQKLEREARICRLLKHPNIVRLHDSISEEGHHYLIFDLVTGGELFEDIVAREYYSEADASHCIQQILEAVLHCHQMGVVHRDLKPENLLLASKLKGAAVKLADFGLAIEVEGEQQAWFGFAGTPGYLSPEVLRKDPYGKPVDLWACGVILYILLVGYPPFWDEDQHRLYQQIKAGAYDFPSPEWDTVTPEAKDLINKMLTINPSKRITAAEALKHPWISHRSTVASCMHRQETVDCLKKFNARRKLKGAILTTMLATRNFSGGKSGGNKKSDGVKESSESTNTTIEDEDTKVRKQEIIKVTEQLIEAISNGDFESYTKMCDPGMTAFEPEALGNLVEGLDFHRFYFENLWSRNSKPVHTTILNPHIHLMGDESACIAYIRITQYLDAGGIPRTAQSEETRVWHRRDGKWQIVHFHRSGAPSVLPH

[10] = target: Mitogen-activated protein kinase kinase kinase kinase 2 (Homo sapiens, UniProt Q12851); assay type: functional;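 further: measured as one member of a kinome-wide kinase panel, with MAP4K2 as the panel entry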
Sequence of Mitogen-activated protein kinase kinase kinase kinase 2 (Q12851 whole entry): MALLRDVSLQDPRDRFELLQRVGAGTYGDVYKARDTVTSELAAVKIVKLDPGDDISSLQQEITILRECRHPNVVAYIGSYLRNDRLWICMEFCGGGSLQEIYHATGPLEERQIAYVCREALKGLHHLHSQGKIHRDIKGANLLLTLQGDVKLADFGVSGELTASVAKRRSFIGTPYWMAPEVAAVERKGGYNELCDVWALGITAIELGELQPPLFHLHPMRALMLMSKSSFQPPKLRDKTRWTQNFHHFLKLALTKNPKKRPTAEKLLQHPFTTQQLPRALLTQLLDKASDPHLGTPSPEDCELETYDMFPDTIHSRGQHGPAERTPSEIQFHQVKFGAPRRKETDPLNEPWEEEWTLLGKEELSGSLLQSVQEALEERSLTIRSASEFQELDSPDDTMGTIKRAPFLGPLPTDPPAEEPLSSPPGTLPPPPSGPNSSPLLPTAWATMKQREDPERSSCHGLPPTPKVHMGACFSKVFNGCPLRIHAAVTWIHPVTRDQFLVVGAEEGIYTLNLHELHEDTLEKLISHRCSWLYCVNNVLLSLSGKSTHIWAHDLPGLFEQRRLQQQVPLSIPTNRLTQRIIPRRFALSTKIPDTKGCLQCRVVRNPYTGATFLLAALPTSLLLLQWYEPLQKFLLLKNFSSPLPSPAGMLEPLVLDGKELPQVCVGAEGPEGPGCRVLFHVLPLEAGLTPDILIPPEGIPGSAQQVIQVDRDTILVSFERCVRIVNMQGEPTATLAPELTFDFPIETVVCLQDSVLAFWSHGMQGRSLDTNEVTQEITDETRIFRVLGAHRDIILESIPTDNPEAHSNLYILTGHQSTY

[11] = target: Dual specificity protein kinase CLK4 (Homo sapiens, UniProt Q9HAZ1); assay type: functional
[12] = target: Mitogen-activated protein kinase 8 (Homo sapiens, UniProt P45983); assay type: functional;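 further: value comes from one member of a kinome-wide kinase profiling panel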
[13] = target: Serine/threonine-protein kinase Nek2 (Homo sapiens, UniProt P51955); assay type: functional
[14] = target: Death-associated protein kinase 3 (Homo sapiens, UniProt O43293); assay type: functional;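 further: measured as one member of a kinome-wide profiling panel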
[15] = target: Cyclin-dependent kinase 8 (Homo sapiens, UniProt P49336); experiment: Navigating the Kinome. Panel member name: CDK8; assay type: functional
[16] = target: Dual specificity tyrosine-phosphorylation-regulated kinase 1B (Homo sapiens, UniProt Q9Y463); experiment: Navigating the Kinome. Panel member name: DYRK1B; assay type: functional
[17] = target: Cyclin-dependent kinase 7 (Homo sapiens, UniProt P50613); assay type: functional;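 further: value comes from a kinome-wide kinase profiling panel in which CDK7 is one member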
[18] = target: Tyrosine-protein kinase Fyn (Homo sapiens, UniProt P06241); assay type: functional
[19] = target: Tyrosine-protein kinase BTK (Homo sapiens, UniProt Q06187); assay type: functional
Sequence of Tyrosine-protein kinase BTK (Q06187 whole entry): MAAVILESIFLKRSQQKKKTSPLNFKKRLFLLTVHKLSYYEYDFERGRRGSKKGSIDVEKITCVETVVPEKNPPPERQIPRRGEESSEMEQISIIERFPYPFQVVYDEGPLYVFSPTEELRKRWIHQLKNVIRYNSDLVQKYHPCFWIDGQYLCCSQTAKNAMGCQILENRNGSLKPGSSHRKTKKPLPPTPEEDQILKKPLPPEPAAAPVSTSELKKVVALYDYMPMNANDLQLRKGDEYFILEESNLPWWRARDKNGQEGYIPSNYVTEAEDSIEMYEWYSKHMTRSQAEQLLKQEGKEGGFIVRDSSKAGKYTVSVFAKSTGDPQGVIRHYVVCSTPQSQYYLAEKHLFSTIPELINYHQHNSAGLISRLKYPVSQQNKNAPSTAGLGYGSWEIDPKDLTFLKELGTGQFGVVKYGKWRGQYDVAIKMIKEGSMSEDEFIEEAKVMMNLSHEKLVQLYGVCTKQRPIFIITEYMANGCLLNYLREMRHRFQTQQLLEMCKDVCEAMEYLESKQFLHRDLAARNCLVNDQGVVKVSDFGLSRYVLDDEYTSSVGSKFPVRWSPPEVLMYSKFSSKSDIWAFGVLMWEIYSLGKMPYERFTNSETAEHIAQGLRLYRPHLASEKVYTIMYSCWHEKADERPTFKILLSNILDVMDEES

[20] = target: G protein-coupled receptor kinase 5 (Homo sapiens, UniProt P34947); experiment: Navigating the Kinome. Panel member name: GPRK5; assay type: functional
[21] = target: Vascular endothelial growth factor receptor 1 (Homo sapiens, UniProt P17948); assay type: functional;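 further: measured within a kinome-wide profiling panel, FLT1 as the panel member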
Sequence of Vascular endothelial growth factor receptor 1 (P17948 whole entry): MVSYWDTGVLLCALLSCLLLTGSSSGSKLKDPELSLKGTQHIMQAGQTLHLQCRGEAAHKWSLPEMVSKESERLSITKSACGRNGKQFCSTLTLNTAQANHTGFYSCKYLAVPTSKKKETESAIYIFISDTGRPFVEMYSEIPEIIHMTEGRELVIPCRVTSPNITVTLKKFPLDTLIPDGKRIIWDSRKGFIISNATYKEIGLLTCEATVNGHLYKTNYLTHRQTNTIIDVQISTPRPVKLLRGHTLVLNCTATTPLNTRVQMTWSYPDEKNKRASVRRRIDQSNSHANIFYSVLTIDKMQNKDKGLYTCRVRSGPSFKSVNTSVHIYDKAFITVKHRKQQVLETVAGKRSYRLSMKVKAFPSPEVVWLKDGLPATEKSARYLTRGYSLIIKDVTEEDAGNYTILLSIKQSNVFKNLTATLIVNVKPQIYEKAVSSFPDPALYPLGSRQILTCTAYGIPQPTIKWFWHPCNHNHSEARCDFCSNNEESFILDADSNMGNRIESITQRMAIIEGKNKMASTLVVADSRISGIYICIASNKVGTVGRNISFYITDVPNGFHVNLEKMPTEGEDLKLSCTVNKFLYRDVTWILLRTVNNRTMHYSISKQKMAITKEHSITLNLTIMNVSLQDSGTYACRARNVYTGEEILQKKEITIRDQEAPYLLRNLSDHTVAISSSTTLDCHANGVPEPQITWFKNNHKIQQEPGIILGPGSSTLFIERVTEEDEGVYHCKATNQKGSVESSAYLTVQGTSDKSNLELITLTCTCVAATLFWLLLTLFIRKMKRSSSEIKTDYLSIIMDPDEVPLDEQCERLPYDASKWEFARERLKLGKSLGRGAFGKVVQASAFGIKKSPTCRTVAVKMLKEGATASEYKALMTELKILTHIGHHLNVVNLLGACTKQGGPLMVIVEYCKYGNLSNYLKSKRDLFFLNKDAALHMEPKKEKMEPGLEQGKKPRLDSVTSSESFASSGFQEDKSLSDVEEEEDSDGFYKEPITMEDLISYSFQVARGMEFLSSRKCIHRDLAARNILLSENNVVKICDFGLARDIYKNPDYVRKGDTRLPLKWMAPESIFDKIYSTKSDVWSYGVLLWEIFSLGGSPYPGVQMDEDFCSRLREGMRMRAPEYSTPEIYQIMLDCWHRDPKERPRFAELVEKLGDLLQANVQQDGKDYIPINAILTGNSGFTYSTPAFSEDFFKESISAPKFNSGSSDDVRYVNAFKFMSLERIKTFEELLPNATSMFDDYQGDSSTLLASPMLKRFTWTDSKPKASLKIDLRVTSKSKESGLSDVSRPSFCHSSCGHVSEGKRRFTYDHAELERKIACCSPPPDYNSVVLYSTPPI

[22] = target: Serine/threonine-protein kinase Chk1 (Homo sapiens, UniProt O14757); assay type: functional;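 further: measured as one member of a kinome-wide kinase profiling panel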
[23] = target: Platelet-derived growth factor receptor alpha (Homo sapiens, UniProt P16234); experiment: Navigating the Kinome. Panel member name: PDGFRA; assay type: functional
[24] = target: Fibroblast growth factor receptor 1 (Homo sapiens, UniProt P11362); assay type: functional
[25] = target: Serine/threonine-protein kinase TAO1 (Homo sapiens, UniProt Q7L7X3); assay type: functional
[26] = target: Glycogen synthase kinase-3 alpha (Homo sapiens, UniProt P49840); assay type: functional;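 further: GSK3A result taken from a broad kinome-wide kinase panel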
[27] = target: Mitogen-activated protein kinase kinase kinase kinase 4 (Homo sapiens, UniProt O95819); assay type: functional
[28] = target: Dual specificity tyrosine-phosphorylation-regulated kinase 1A (Homo sapiens, UniProt Q13627); assay type: functional;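 further: measured against DYRK1A as one member of a broad kinome profiling panel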
[29] = target: Tyrosine-protein kinase JAK3 (Homo sapiens, UniProt P52333); assay type: functional
[30] = target: cAMP-dependent protein kinase catalytic subunit PRKX (Homo sapiens, UniProt P51817); assay type: functional
[31] = target: Hepatocyte growth factor receptor (Homo sapiens, UniProt P08581); assay type: functional;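 further: kinase panel profiling across the kinome, with MET as the panel member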
Activin receptor type-1 = Activin receptor type-1 (Homo sapiens, UniProt Q04771); experiment: Navigating the Kinome. Panel member name: ACVR1; assay type: functional
[32] = target: Mitogen-activated protein kinase 14 (Homo sapiens, UniProt Q16539); assay type: functional;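 further: part of a kinome-wide panel, MAPK14 entry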
[33] = target: Serine/threonine-protein kinase pim-1 (Homo sapiens, UniProt P11309); assay type: functional
[34] = target: Tyrosine-protein kinase Lck (Homo sapiens, UniProt P06239); assay type: functional;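 further: lck was assayed as one member of a kinase panel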
[35] = target: Casein kinase I isoform alpha (Homo sapiens, UniProt P48729); assay type: functional
[36] = target: Leukocyte tyrosine kinase receptor (Homo sapiens, UniProt P29376); experiment: Navigating the Kinome. Panel member name: LTK; assay type: functional
[37] = target: Serine/threonine-protein kinase D3 (Homo sapiens, UniProt O94806); assay type: functional;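 further: determined within a kinase panel screen, with PRKCN as the panel member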
[38] = target: Serine/threonine-protein kinase PAK 4 (Homo sapiens, UniProt O96013); assay type: functional;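 further: value obtained within a kinome profiling panel in which PAK4 was one of the panel members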
Aurora kinase B = Aurora kinase B (Homo sapiens, UniProt Q96GD4); assay type: functional

**Q.** How did the IC50 [1] turn out when `Cc1cc(NC(=O)C2CC2)sc1C(=O)Nc1ccc2[nH]c(-c3cc(F)ccc3F)nc2c1` was run?
**A.** 42.4 µM (active)

**Q.** For `Cn1cc(Nc2ncc(Br)c(Nc3ccccc3S(C)(=O)=O)n2)cn1`, which Ki [2] is on record?
**A.** 2.51 µM (active)

**Q.** And the Ki [3]?
**A.** > 100 µM (inactive)

**Q.** With `Oc1c(Br)cc(Br)cc1/C=N/Cc1ccccc1` as the molecule, how does the IC50 (H9c2) read?
**A.** > 79 µM (inactive)

**Q.** What about the IC50 [4] of the same molecule?
**A.** 3.16 µM (active)

**Q.** What about the AC50 [5] of the same molecule?
**A.** 5.31 µM (active)

**Q.** And the IC50 [6]?
**A.** 9.73 µM (active)

**Q.** How did the EC50 [7] turn out when `O=C(Cc1ccccc1)c1ccccn1` was run?
**A.** 8.6 µM (active)

**Q.** And the EC50 [8]?
**A.** > 20 µM (inactive)

**Q.** What does the source list for `CCN1c2cc(N)ccc2-c2ccc(N)cc2C1(O)c1ccccc1` (configuration not stated)?
**A.** Ki [9]: > 3.98 µM (inactive); Ki [10]: 2 µM (active); Ki [11]: 0.398 µM (active); Ki [12]: > 5.01 µM (inactive); Ki [13]: 2 µM (active); Ki [14]: > 5.01 µM (inactive); Ki [15]: > 3.98 µM (inactive); Ki [16]: 2.51 µM (active); Ki [17]: > 3.98 µM (inactive); Ki [2]: > 6.31 µM (inactive); Ki [18]: > 6.31 µM (inactive); Ki [19]: 3.98 µM (active); Ki [20]: > 3.98 µM (inactive); Ki [21]: 3.16 µM (active); Ki [22]: 2 µM (active); Ki [23]: 1.26 µM (active); Ki [24]: > 3.98 µM (inactive); Ki [25]: 3.16 µM (active); Ki [26]: > 3.98 µM (inactive); Ki [27]: 3.16 µM (active); Ki [28]: 0.794 µM (active); Ki [29]: 3.16 µM (active); Ki [30]: 2 µM (active); Ki [31]: 2.51 µM (active); Ki (Activin receptor type-1): > 3.98 µM (inactive); Ki [32]: > 3.98 µM (inactive); Ki [33]: > 6.31 µM (inactive); Ki [34]: > 6.31 µM (inactive); Ki [35]: > 3.98 µM (inactive); Ki [36]: 2 µM (active); Ki [37]: 3.98 µM (active); Ki [38]: > 5.01 µM (inactive); Ki (Aurora kinase B): > 3.98 µM (inactive)
